Experimental data taken from patent publication US9902737B2, “Sweet flavor modifier” (SENOMYX, INC., priority 2010, dated 2018).
“And” between values parts separate entries of the source, which are not always exact repeats. Identical values can stand only once.

Key:
human panelists [1] = test: Sweet flavor enhancement, human panelists, paired comparison test; assay type: in vivo
Description: Test samples containing experimental compounds are presented in pairs to the panelist and they are asked to determine which of the sample is sweeter. A group of 10-16 or more panelists participated in each test. Subjects refrained from eating or drinking (except water) for at least 1 hour prior to the test. Subjects rinsed with water several times to clean the mouth.
All samples are prepared with ethanol to ensure dispersion of the compound in solution. This includes samples without compound; all solutions are balanced for 0.1% ethanol.
Samples are also prepared with low sodium buffer (pH 7.1) in place of water. Buffer contains 0.952 g of KCl, 5.444 g of Na2HPO4, and 0.952 g of KH2PO4 in 40 L of DIUF water. Sample volumes are usually 20 ml.
In one paired comparison test, the panelist is presented with two different samples and asked to identify the sample which is sweeter. The samples within a paired comparison test are presented in a randomized, counterbalanced order. Panelists have up to a 1 minute delay between taste tests to clear the mouth of any tastes.
Binomial probability tables are used to determine the probability of the correct number of responses occurring for each test at alpha=0.05

human panelists [2] = test: Sweet flavor enhancement, human panelists, scaling test; assay type: in vivo; set-up: key: 0 = no sweetness, 15 = sweetness equal to 15% sucrose; conditions: 0-15 line scale
Excerpt: Test samples containing experimental compounds were compared to a dose-response curve for perceived sweetness intensity of sweeteners (sucralose, sucrose, fructose and other sweeteners) concentrations to determine equivalent sweetness intensity.
A group of eight or more panelists tasted solutions including sweeteners at various concentrations, as well as the experimental compound both with and without added sweetener. Panelists then rated sweetness intensity of all samples on a structured horizontal line scale, anchored from 0 to 15, where 0 equals no sweetness and 15 equals equivalent sweetness to a 15% sucrose sample. Scores for sweetness intensity were averaged across panelists. Then using the average scores and/or equation of the line for the sweetener dose-response curve, equivalent sweetness concentrations were determined for the samples containing experimental compounds.
Subjects had been previously familiarized with the key attribute taste and were trained to use the 0 to 15 point line scale. Subjects refrained from eating or drinking (except water) for at least 1 hour prior to the test. Subjects ate a cracker and rinsed with water several times to clean the mouth.
Sweetener solutions are provided at a wide range of concentrations such as 100 ppm, 200 ppm, 300 ppm, 400 ppm, and 500 ppm for sucralose, or between 0% and 12% for sucrose or fructose, in order to create a dose-response curve. Samples containing experimental compound were prepared both alone and in a 100 ppm sucralose solution or a 6% sucrose or fructose solution. All samples were made up in low sodium buffer pH 7.1. In order to aid dispersion, solutions can be made up in 0.1% ethanol.
The solutions were dispensed in 20 ml volumes into 1 oz. sample cups and served to the subjects at room temperature. All samples were presented in randomized counterbalanced order to reduce response bias. Further, two sessions of testing may be used to check panel precision.
Subjects tasted each sample individually and rate sweetness intensity on the line scale prior to tasting the next sample. All samples were expectorated. Subjects may retaste the samples but can only use the volume of sample given. Subjects must rinse with water between samples. Eating an unsalted cracker between samples may be required depending on the samples tasted.
The scores for each sample were averaged across subjects and standard error was calculated. The dose-response curve was plotted graphically, and this may be used to ensure the panel is rating accurately; i.e., increasing the concentration of sucralose should correspond to increased average scores for sweetness. A 2-way ANOVA (factors being samples and panelists) and multiple comparison tests (such as Tukey's Honestly Significant Difference test) can be used to determine differences among samples and/or panelists. A 3-way ANOVA, with sessions as the third factor, can be used to determine if there is any difference in the ratings between sessions.

hT1R2/R3 = target: T1, hT1R2/R3 (Homo sapiens, UniProt Q7RTX0+Q8TE23); test: Screening for sweet enhancers: sucrose EC50 shift, FLIPR calcium assay; assay type: cell-based; conditions: sucrose EC50 without enhancer / with enhancer; test compound 50 μM; hT1R2/R3-HEK293 Ga15 cells; Tables A and B
T1 construct: expressed in transfected cells; host or cells: HEK293 cells expressing Ga15 (hT1R2/R3-HEK293 Ga15)
T1 sequence (Q8TE23 20-839): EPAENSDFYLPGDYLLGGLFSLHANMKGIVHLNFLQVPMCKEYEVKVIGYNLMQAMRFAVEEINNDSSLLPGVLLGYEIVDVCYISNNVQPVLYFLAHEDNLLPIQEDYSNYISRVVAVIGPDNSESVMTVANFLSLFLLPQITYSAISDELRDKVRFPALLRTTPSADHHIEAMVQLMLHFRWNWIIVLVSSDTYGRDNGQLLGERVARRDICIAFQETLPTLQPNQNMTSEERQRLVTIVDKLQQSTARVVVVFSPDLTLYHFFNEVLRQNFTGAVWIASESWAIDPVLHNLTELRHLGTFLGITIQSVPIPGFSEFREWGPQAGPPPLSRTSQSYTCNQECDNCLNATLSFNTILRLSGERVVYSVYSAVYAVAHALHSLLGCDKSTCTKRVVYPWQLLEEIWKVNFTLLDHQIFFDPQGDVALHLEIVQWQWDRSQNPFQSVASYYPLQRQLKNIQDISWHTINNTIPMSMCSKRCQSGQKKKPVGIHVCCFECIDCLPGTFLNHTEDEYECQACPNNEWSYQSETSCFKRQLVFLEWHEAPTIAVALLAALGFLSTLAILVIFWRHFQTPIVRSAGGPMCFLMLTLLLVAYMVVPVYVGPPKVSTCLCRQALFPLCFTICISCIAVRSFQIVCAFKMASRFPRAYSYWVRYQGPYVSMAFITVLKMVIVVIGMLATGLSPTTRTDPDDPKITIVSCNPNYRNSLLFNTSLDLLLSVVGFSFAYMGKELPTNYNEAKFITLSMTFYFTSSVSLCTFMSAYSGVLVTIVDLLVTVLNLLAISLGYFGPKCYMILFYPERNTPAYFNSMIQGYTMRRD
T1 sequence (Q7RTX0 21-852): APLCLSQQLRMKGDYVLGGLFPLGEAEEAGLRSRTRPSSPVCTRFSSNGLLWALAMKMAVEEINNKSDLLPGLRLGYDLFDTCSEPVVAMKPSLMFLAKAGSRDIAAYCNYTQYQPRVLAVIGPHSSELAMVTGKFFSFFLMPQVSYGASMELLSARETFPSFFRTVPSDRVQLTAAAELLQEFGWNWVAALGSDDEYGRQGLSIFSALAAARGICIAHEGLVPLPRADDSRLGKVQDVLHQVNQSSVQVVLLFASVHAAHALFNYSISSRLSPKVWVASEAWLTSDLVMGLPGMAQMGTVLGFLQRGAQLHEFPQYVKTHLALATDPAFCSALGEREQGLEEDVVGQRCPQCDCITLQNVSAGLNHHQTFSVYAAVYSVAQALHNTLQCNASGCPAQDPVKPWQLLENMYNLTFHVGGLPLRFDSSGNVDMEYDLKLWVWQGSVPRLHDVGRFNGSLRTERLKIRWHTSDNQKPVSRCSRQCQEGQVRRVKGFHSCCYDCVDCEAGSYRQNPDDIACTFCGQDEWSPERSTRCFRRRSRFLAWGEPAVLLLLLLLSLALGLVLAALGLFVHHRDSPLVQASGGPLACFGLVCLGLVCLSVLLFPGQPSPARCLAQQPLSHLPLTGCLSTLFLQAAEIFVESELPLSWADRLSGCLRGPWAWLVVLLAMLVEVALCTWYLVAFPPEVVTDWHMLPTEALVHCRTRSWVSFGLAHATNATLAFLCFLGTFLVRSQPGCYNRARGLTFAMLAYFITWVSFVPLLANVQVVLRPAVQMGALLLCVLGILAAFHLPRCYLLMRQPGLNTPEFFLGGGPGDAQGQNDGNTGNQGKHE
Description: hT1R2/R3-HEK293 Ga15 cells were seeded in 384-well-clear bottom plates (Fisher) at a density of ˜32,000 cells/well and grown overnight. On the day of the experiment, hT1R2/R3-HEK293 Ga15 were loaded with the calcium indicator Fluo3AM ([…]) (Invitrogen, Carlsbad, Calif.) in D-PBS (Invitrogen, Carlsbad, Calif.) using a Multidrop. Cells were incubated for 1 hour at room temperature and excess dye was washed out with D-PBS using an EMBLA cell washer (Molecular Devices, Sunnyvale, Calif.), leaving a residual volume of […]. […] After 30 minutes of rest time at room temperature, Fluo3AM-loaded cell plates, and the sweetener/compound plate mixture were loaded into a Fluorometric Imaging Plate Reader (FLIPR) (Molecular Devices, Sunnyvale, Calif.). Imaging was performed using a 480 nm excitation and a 535 emission and was initiated with the acquisition of the baseline fluorescence for a period of 7 seconds. […] Raw fluorescence counts were then normalized in each well (using custom made data import software) by calculating delta F/f values (maximum fluorescent count obtained after stimulation—minimal fluorescent count obtained before stimulation/minimal fluorescent count obtained before stimulation). EC50s were determined using a non-linear regression algorithm (GraphPad PRISM, San Diego, Calif.), where the Hill slope, bottom asymptotes and top asymptotes were allow to vary. […]

`Cc1nc2cccc(OCC(C)C)c2c(N)c1C(=O)O` [Example 41, 4-amino-5-isobutoxy-2-methylquinoline-3-carboxylic acid] showed a melting point of 203.7 °C.
In the case of `OC[C@H]1O[C@@](CO)(O[C@H]2O[C@H](CO)[C@@H](O)[C@H](O)[C@H]2O)[C@@H](O)[C@@H]1O` [Sucrose, sucrose], the “Sample selected as sweeter by panelists, Total” value (“Sample selected as sweeter” for short) (human panelists [1]; pair: 1% sucrose vs LSB + 25 uM Compound A, total 45) is reported as 44, the “Sample selected as sweeter” value (human panelists [1]; pair: 1% sucrose vs LSB + 25 uM Compound I3, total 42) is reported as 36 and the “Sample selected as sweeter” value (human panelists [1]; pair: 1% sucrose vs LSB + 33 uM Compound C1, total 22) is reported as 18. For the same molecule, the “Sample selected as sweeter” value (human panelists [1]; pair: 1% sucrose vs LSB + 36.5 uM Compound B4, total 45) was 44, the “Sample selected as sweeter” value (human panelists [1]; pair: 1% sucrose vs LSB + 45 uM Compound J, total 48) was 47 and the “Sample selected as sweeter” value (human panelists [1]; pair: 10% sucrose vs 6% sucrose + 25 uM Compound A, total 48) was 28. The “Sample selected as sweeter” value (human panelists [1]; pair: 10% sucrose vs 6% sucrose + 36.5 uM Compound B4, total 26) was 10, the “Sample selected as sweeter” value (human panelists [1]; pair: 10% sucrose vs 6% sucrose + 45 uM Compound J, total 42) was 17 and the “Sample selected as sweeter” value (human panelists [1]; pair: 12% sucrose vs 6% sucrose + 25 uM Compound I3, total 42) was 18. The “Sample selected as sweeter” value (human panelists [1]; pair: 12% sucrose vs 6% sucrose + 33 uM Compound C1, total 30) was 17, the Average sweetness (human panelists [2]; 6% sucrose alone (reference)) was 6.6 and 6.5 and 6.3 and 6.2 and 6.1 and 6.4 and the Average sweetness (human panelists [2]; 8% sucrose alone (reference)) was 8.2 and 8.1 and 7.8 and 7.9 and 8.4. The Average sweetness (human panelists [2]; 9% sucrose alone (reference)) was 9.2 and 8.4 and 8.6 and 8.5, the Average sweetness (human panelists [2]; 10% sucrose alone (reference)) was 9.7 and 9.5 and 9.2 and 9.0 and 9.6 and 10.3 and the Average sweetness (human panelists [2]; 12% sucrose alone (reference)) was 10.9.
`Cc1nc2cccc(OCC(C)(C)NC(=O)c3ccncc3)c2c(N)c1C(=O)O` [Example 24, 4-amino-5-(2-(isonicotinamido)-2-methylpropoxy)-2-methylquinoline-3-carboxylic acid] showed a melting point of 195 to 198 °C.
For `OC[C@H]1O[C@H](O[C@]2(CCl)O[C@H](CCl)[C@@H](O)[C@@H]2O)[C@H](O)[C@@H](O)[C@H]1Cl` [sucralose], the Average sweetness (human panelists [2]; 50 ppm sucralose alone (reference)) was 3.9, the Average sweetness (human panelists [2]; 100 ppm sucralose alone (reference)) was 5.9 and 5.5 and the Average sweetness (human panelists [2]; 200 ppm sucralose alone (reference)) was 8.7 and 9.1. The Average sweetness (human panelists [2]; 300 ppm sucralose alone (reference)) was 10.2.
In the case of `CCCNC(=O)C(C)(C)COc1cccc2nc(CC)c(C(=O)O)c(N)c12` [Compound Q, 4-amino-5-(2,2-dimethyl-3-oxo-3-(propylamino)propoxy)-2-ethyl-quinoline-3-carboxylic acid], the “EC50 Ratio (50 μM)” value (hT1R2/R3) is reported as 3.4.
Molecule `CCC(CC)COc1cccc2nc(C)c(C(=O)O)c(N)c12` [Example 22, 4-amino-5-(2-ethylbutoxy)-2-methylquinoline-3-carboxylic acid] has a melting point of 145 to 151 °C.
Molecule `Cc1nc2cccc(OC3CCCCC3)c2c(N)c1C(=O)O` [Example 36, 4-amino-5-(cyclohexyloxy)-2-methylquinoline-3-carboxylic acid] has a melting point of 220 to 221.5 °C.
With `Cc1nc2cccc(OCC(C)(C)NC(=O)c3cccc(O)c3)c2c(N)c1C(=O)O` [Example 25, 4-amino-5-(2-(3-hydroxybenzamido)-2-methylpropoxy)-2-methylquinoline-3-carboxylic acid] the melting point was 195 to 198 °C.
